Measurements as given in patent publication US20230414754A1, “CONDITIONAL CONTROL OF UNIVERSAL CAR T CELLS THROUGH STIMULUS-REACTIVE ADAPTORS” (UNIVERSITY OF PITTSBURGH-OF THE COMMONWEALTH SYSTEM OF …, priority 2020, published 2023).

How the values were obtained:
CD20+ Raji target cells = experiment: SNAP-CAR T cell activation (CD69) with MTGase-produced site-specific adaptor; format: cell-based, human; details: CD69 after 24 h
Procedure: (§1) 55. FIGS. 26A and 26B show MTGase enzymatic antibody-adaptor conjugation. […] CD69 T cell activation marker expression on the CAR T cells was evaluated after 24 h. n=3 biol. reps.
(§2) 187. In a complementary, enzymatic conjugation approach we synthesized the terminal amine 11 from the commercially available PEG 10 (FIG. 12A), and target a conserved glutamine located in each of the heavy chains of the de-glycosylated IgG1 antibody through selective modification by the enzyme MTGase (FIG. 12B). This generates uniform conjugates in quantitative yields adding exactly two modifications using conserved glutamines as the only γ-carbonyl amide donors on dei-glycosylated IgGls, This method that has been used for dozens of clinical use ADCs. […] In addition, the site-specific adaptor was efficient at inducing T cell activity (FIG. 26B).

SNAPtag = experiment: Incubation of MTGase-made adaptor with SNAP protein, SDS-PAGE; format: biochemical; details: SNAPtag 2 eq. per BG
Procedure: as §1, §2

SNAP-synNotch receptor = SNAP-synNotch receptor activation in Jurkat cells co-incubated with target cells (TagBFP output); format: cell-based
From the text: 51. […] The system triggers Gal4-VP64 transcription factor-driven TagRFP expression. […] TagRFP levels are reported as mean fluorescence intensity (MFI), n=3 biologically independent experiments±s.d.
176. We created a universal adaptor synNotch to direct receptor activation and the resulting transcriptional gene output in response to interaction with BG-conjugated adaptor antibodies on the surface of target cells (FIG. 22). We cloned a SNAP-synNotch receptor consisting of the SNAPtag domain fused to the Notch core protein, and the Gal4-transcription factor (to turn on a gal4 promoter-driven TagBFP gene) and transduced Jurkat cells. […] Receptor activation was sensitive and tunable, with a significant response at an antibody concentration as low as 0.04 μglmL and increasing to a peak at 0.25 μg/mL. Response gene activation then decreased with increasing antibody indicative of a “hook effect”—as expected in ternary complex formation. BG-conjugated antibodies targeting other antigens were also capable of activating the SNAP-synNotch receptor in an antigen-specific manner indicating universality of the cell re-programming approach.

Row | Substance | inducing T cell activity (CD20+ Raji target cells) | BG labeling by incubation with SNAP protein (SNAPtag) | function of universal adaptor synNotch system (SNAP-synNotch receptor)
1 | RTX-BG: PEG2-BG labeled Rituximab adaptor made via MTGase conjugation | efficient | near complete | 
2 | mSA2 |  |  | ineffective
